Consider 23 compounds from patent US8642585B2, “Indanyloxydihydrobenzofuranylacetic acids” (Boehringer Ingelheim International GmbH, priority 2012, dated 2014).

The assay concerns the target human GPR40 receptor (Homo sapiens, UniProt O14842). Nature of the assay: Assay II: IP1 accumulation (IPOne HTRF) in 1321N1 cells stably expressing human GPR40. Type of assay: cell-based. As to conditions: 1321N1 cells expressing human GPR40, stimulation 1 h at 37° C., 5% CO2, LiCl 50 mM. How it is done: IP1 accumulation measurements using the IPOne assay system—1321N1 cells stably expressing human GPR40 receptor (Euroscreen, Belgium) are seeded 24 h before the assay in white 384-well plates in culture medium containing 10% FCS, 1% Na-Pyruvate and 400 μg/mL G418. IP1 is assayed according to the manufacturers description (Cisbio Bioassays, France). In brief, the assay is started by substitution of the culture medium by stimulation buffer (Hepes 10 mM, CaCl2 1 mM, MgCl2 0.5 mM, KCl 4.2 mM, NaCl 146 mM, glucose 5.5 mM and LiCl 50 mM, pH 7.4). Cells are stimulated for 1 h at 37° C., 5% CO2 by addition of the compounds that are diluted in stimulation buffer containing LiCl. Assays are stopped by adding HTRF-conjugates (IP1-d2 and Anti-IP1 cryptate Tb) and lysis buffer, provided by the manufacturer. After an incubation time of 1 h at room temperature plates are measured using an EnVision™, Perkin Elmer. The obtained fluorescence ratios at 665/615 nM are then used to calculate the pEC50 values using Assay Explorer 3.3 Software (Accelrys, Inc.) by interpolation using an IP1 reference curve and subsequent sigmoidal curve fitting allowing for a variable hill slope.

Broadly, the EC50 is the concentration that produces a half-maximal response. A higher EC50 goes with weaker potency.

Sequence of human GPR40 receptor (O14842 whole entry): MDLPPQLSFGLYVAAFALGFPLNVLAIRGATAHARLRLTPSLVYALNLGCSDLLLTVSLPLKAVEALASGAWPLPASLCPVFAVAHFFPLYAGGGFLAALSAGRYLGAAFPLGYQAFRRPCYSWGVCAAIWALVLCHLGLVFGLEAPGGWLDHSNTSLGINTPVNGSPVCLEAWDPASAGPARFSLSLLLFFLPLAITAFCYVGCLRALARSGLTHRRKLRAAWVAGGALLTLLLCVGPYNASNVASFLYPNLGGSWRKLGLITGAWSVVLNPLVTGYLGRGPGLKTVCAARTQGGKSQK

Compound `Cc1cc(O[C@@H]2CCCN(S(C)(=O)=O)C2)cc(C)c1-c1ccc(F)c2c1CC[C@H]2Oc1ccc2c(c1)OC[C@H]2CC(=O)O` [Example 49, ((S)-6-{(R)-7-Fluoro-4-[4-((R)-1-methanesulfonyl-piperidin-3-yloxy)-2,6-dimethyl-phenyl]-indan-1-yloxy}-2,3-dihydro-benzofuran-3-yl)-acetic acid] gave an EC50 of 10 nM.
For the compound `Cc1cc(O[C@H]2CCCN(S(C)(=O)=O)C2)cc(C)c1-c1ccc(F)c2c1CC[C@H]2Oc1ccc2c(c1)OC[C@H]2CC(=O)O` [Example 50, ((S)-6-{(R)-7-Fluoro-4-[4-((S)-1-methanesulfonyl-piperidin-3-yloxy)-2,6-dimethyl-phenyl]-indan-1-yloxy}-2,3-dihydro-benzofuran-3-yl)-acetic acid], the midpoint of the response, the EC50, lay at 20 nM.
With `Cc1cc(OCC2CCCS(=O)(=O)C2)cc(C)c1-c1ccc(F)c2c1CC[C@H]2Oc1ccc2c(c1)OC[C@H]2CC(=O)O` (stereo partly drawn) [Example 51, ((S)-6-{(R)-4-[4-(1,1-Dioxo-hexahydro-1-thiopyran-3-ylmethoxy)-2,6-dimethyl-phenyl]-7-fluoro-indan-1-yloxy}-2,3-dihydro-benzofuran-3-yl)-acetic acid] the figure was 7 nM; with `Cc1cc(C(=O)NCC(C)(C)O)cc(C)c1-c1ccc(F)c2c1CC[C@H]2Oc1ccc2c(c1)OC[C@H]2CC(=O)O` [Example 54, ((S)-6-{(R)-7-Fluoro-4-[4-(2-hydroxy-2-methyl-propylcarbamoyl)-2,6-dimethyl-phenyl]-indan-1-yloxy}-2,3-dihydro-benzofuran-3-yl)-acetic acid], 13 nM.
The compound `Cc1cc(OC(C)(C)CO)cc(C)c1-c1ccc(F)c2c1CC[C@H]2Oc1ccc2c(c1)OC[C@H]2CC(=O)O` [Example 55, ((S)-6-{(R)-7-Fluoro-4-[4-(2-hydroxy-1,1-dimethyl-ethoxy)-2,6-dimethyl-phenyl]-indan-1-yloxy}-2,3-dihydro-benzofuran-3-yl)-acetic acid] came in with an EC50 of 25 nM.
For the compound `Cc1cc(OC(C)(C)C(N)=O)cc(C)c1-c1ccc(F)c2c1CC[C@H]2Oc1ccc2c(c1)OC[C@H]2CC(=O)O` [Example 56, ((S)-6-{(R)-4-[4-(1-Carbamoyl-1-methyl-ethoxy)-2,6-dimethyl-phenyl]-7-fluoro-indan-1-yloxy}-2,3-dihydro-benzofuran-3-yl)-acetic acid], the EC50 amounted to 43 nM.
Turning to `Cc1cc(OCC(C)(C)C#N)cc(C)c1-c1ccc(F)c2c1CC[C@H]2Oc1ccc2c(c1)OC[C@H]2CC(=O)O` [Example 64, 2-((S)-6-((R)-4-(4-(2-Cyano-2-methylpropoxy)-2,6-dimethylphenyl)-7-fluoro-2,3-dihydro-1H-inden-1-yloxy)-2,3-dihydrobenzofuran-3-yl)acetic acid], a half-maximal effect (EC50) was put at 8 nM.
`Cc1cc(OCC2(O)CCOCC2)cc(C)c1-c1ccc(F)c2c1CC[C@H]2Oc1ccc2c(c1)OC[C@H]2CC(=O)O` [Example 66, 2-((S)-6-((R)-7-Fluoro-4-(4-((4-hydroxytetrahydro-2H-pyran-4-yl)methoxy)-2,6-dimethylphenyl)-2,3-dihydro-1H-inden-1-yloxy)-2,3-dihydrobenzofuran-3-yl)acetic acid] returned an EC50 of 5 nM.
Take `Cc1cc(CCC(C)(C)O)cc(C)c1-c1ccc(F)c2c1CC[C@H]2Oc1ccc2c(c1)OC[C@H]2CC(=O)O` [Example 67, 2-((S)-6-((R)-7-Fluoro-4-(4-(3-hydroxy-3-methylbutyl)-2,6-dimethylphenyl)-2,3-dihydro-1H-inden-1-yloxy)-2,3-dihydrobenzofuran-3-yl)acetic acid]: the response was half-maximal at 7 nM (EC50).
`Cc1cc(OCC2(O)CCSCC2)cc(C)c1-c1ccc(F)c2c1CC[C@H]2Oc1ccc2c(c1)OC[C@H]2CC(=O)O` [Example 68, 2-((S)-6-((R)-7-Fluoro-4-(4-((4-hydroxytetrahydro-2H-thiopyran-4-yl)methoxy)-2,6-dimethylphenyl)-2,3-dihydro-1H-inden-1-yloxy)-2,3-dihydrobenzofuran-3-yl)acetic acid] had a concentration giving a half-maximal response (EC50) of 10 nM. This EC50 and that of the compound before are within 1.5-fold of each other.
Turning to `Cc1cc(OCC2(O)CCS(=O)(=O)CC2)cc(C)c1-c1ccc(F)c2c1CC[C@H]2Oc1ccc2c(c1)OC[C@H]2CC(=O)O` [Example 69, 2-((S)-6-((R)-7-Fluoro-4-(4-((1,1-dioxo-4-hydroxytetrahydro-2H-thiopyran-4-yl)methoxy)-2,6-dimethylphenyl)-2,3-dihydro-1H-inden-1-yloxy)-2,3-dihydrobenzofuran-3-yl)acetic acid], the EC50 is 8 nM.
On to `Cc1cc(CCCS(C)(=O)=O)cc(C)c1-c1ccc(F)c2c1CC[C@H]2Oc1ccc2c(c1)OC[C@H]2CC(=O)O` [Example 70, 2-((S)-6-((R)-4-(2,6-Dimethyl-4-(3-(methylsulfonyl)propyl)phenyl)-7-fluoro-2,3-dihydro-1H-inden-1-yloxy)-2,3-dihydrobenzofuran-3-yl)acetic acid], for which a half-maximal response (EC50) required 60 nM.
On to `Cc1cc(OCCNS(C)(=O)=O)cc(C)c1-c1ccc(F)c2c1CC[C@H]2Oc1ccc2c(c1)OC[C@H]2CC(=O)O` [Example 71, 2-((S)-6-((R)-4-(2,6-Dimethyl-4-(2-(methylsulfonamido)ethoxy)phenyl)-7-fluoro-2,3-dihydro-1H-inden-1-yloxy)-2,3-dihydrobenzofuran-3-yl)acetic acid], for which the EC50 came out at 28 nM.
In the case of `CC(=O)NCCc1cc(C)c(-c2ccc(F)c3c2CC[C@H]3Oc2ccc3c(c2)OC[C@H]3CC(=O)O)c(C)c1` [Example 72, 2-((S)-6-((R)-4-(4-(2-Acetamidoethyl)-2,6-dimethylphenyl)-7-fluoro-2,3-dihydro-1H-inden-1-yloxy)-2,3-dihydrobenzofuran-3-yl)acetic acid], the EC50 is 23 nM.
For the compound `CC(=O)NCCOc1cc(C)c(-c2ccc(F)c3c2CC[C@H]3Oc2ccc3c(c2)OC[C@H]3CC(=O)O)c(C)c1` [Example 73, 2-((S)-6-((R)-4-(4-(2-Acetamidoethoxy)-2,6-dimethylphenyl)-7-fluoro-2,3-dihydro-1H-inden-1-yloxy)-2,3-dihydrobenzofuran-3-yl)acetic acid], the EC50 came to 13 nM.
`Cc1cc(CCNS(C)(=O)=O)cc(C)c1-c1ccc(F)c2c1CC[C@H]2Oc1ccc2c(c1)OC[C@H]2CC(=O)O` [Example 74, 2-((S)-6-((R)-4-(2,6-dimethyl-4-(2-(methylsulfonamido)ethyl)phenyl)-7-fluoro-2,3-dihydro-1H-inden-1-yloxy)-2,3-dihydrobenzofuran-3-yl)acetic acid] yielded an EC50 of 40 nM. Against the preceding compound, the EC50 is about 3.1-fold higher.
`Cc1cc(OCC2(O)CC2)cc(C)c1-c1ccc(F)c2c1CC[C@H]2Oc1ccc2c(c1)OC[C@H]2CC(=O)O` [Example 75, 2-((S)-6-((R)-7-Fluoro-4-(4-((1-hydroxycyclopropyl)methoxy)-2,6-dimethylphenyl)-2,3-dihydro-1H-inden-1-yloxy)-2,3-dihydrobenzofuran-3-yl)acetic acid]: the EC50 was 17 nM. This EC50 is about 2.4-fold lower than that of the compound before.
On to `Cc1cc(OC2CCN(C)C2=O)cc(C)c1-c1ccc(F)c2c1CC[C@H]2Oc1ccc2c(c1)OC[C@H]2CC(=O)O` (stereo partly drawn) [Example 76, 2-((3S)-6-((1R)-4-(2,6-Dimethyl-4-(1-methyl-2-oxopyrrolidin-3-yloxy)phenyl)-7-fluoro-2,3-dihydro-1H-inden-1-yloxy)-2,3-dihydrobenzofuran-3-yl)acetic acid], for which a half-maximal response (EC50) required 27 nM. This EC50 lies about 1.6-fold higher than the previous one.
`Cc1cc(OCC(C)(C)CS(C)(=O)=O)cc(C)c1-c1ccc(F)c2c1CC[C@H]2Oc1ccc2c(c1)OC[C@H]2CC(=O)O` [Example 77, 2-((S)-6-((R)-4-(4-(2,2-Dimethyl-3-(methylsulfonyl)propoxy)-2,6-dimethylphenyl)-7-fluoro-2,3-dihydro-1H-inden-1-yloxy)-2,3-dihydrobenzofuran-3-yl)acetic acid] gave a 50% effective concentration (EC50) of 10 nM.
`Cc1cc(C2CCOCC2)cc(C)c1-c1ccc(F)c2c1CC[C@H]2Oc1ccc2c(c1)OC[C@H]2CC(=O)O` [Example 80, 2-((S)-6-((R)-4-(2,6-Dimethyl-4-(tetrahydro-2H-pyran-4-yl)phenyl)-7-fluoro-2,3-dihydro-1H-inden-1-yloxy)-2,3-dihydrobenzofuran-3-yl)acetic acid] had a half-maximal effective concentration (EC50) of 11 nM. This EC50 and that of the compound before are within 1.5-fold of each other.
`Cc1cc(C2=CC(=O)OCC2)cc(C)c1-c1ccc(F)c2c1CC[C@H]2Oc1ccc2c(c1)OC[C@H]2CC(=O)O` [Example 81, 2-((S)-6-((R)-4-(2,6-Dimethyl-4-(6-oxo-3,6-dihydro-2H-pyran-4-yl)phenyl)-7-fluoro-2,3-dihydro-1H-inden-1-yloxy)-2,3-dihydrobenzofuran-3-yl)acetic acid]: the EC50 worked out at 8 nM.
`COCc1cc(OCC2(C)COC2)cc(COC)c1-c1ccc(F)c2c1CC[C@H]2Oc1ccc2c(c1)OC[C@H]2CC(=O)O` [Example 82, 2-((S)-6-((R)-4-(2,6-Bis(methoxymethyl)-4-((3-methyloxetan-3-yl)methoxy)phenyl)-7-fluoro-2,3-dihydro-1H-inden-1-yloxy)-2,3-dihydrobenzofuran-3-yl)acetic acid]: the EC50 was determined as 14 nM.
On to `Cc1cc(-c2cnn(CC(C)(C)O)c2)cc(C)c1-c1ccc(F)c2c1CC[C@H]2Oc1ccc2c(c1)OC[C@H]2CC(=O)O` [Example 83, 2-((S)-6-((R)-7-Fluoro-4-(4-(1-(2-hydroxy-2-methylpropyl)-1H-pyrazol-4-yl)-2,6-dimethylphenyl)-2,3-dihydro-1H-inden-1-yloxy)-2,3-dihydrobenzofuran-3-yl)acetic acid], for which the EC50 stood at 6 nM.
